Consider 4 compounds from patent US20220354817A1, “PHARMACEUTICAL COMPOSITION FOR PREVENTING OR TREATING SARCOPENIA CONTAINING NON-NATURAL AMINO ACID DERIVATIVE” (MYO-TEC-SCI, priority 2019, published 2022).

Structures can show the parent of a compound that is named as a salt.

The test system of one experiment is myostatin mRNA. The experiment can be described thus: Myostatin mRNA expression by qRT-PCR in C2C12 cells, corrected with beta-actin. The experiment is classed as cell-based, mouse. The conditions noted are these: for inhibition of myostatin mRNA expression: 0.1 mM and 1 mM in medium without L-leucine. An excerpt:
[…] After one day, the mRNA expression level of myostatin was identified using qRT-PCR, and the myostatin mRNA expression value was corrected using the expression value of beta-actin.
On the technique in general: In qPCR the cycle at which signal appears reflects the starting amount.

The subject of a further experiment is myostatin promoter. The experiment can be described thus: Myostatin promoter activity, dual luciferase assay in C2C12 cells transfected with pGL4.15-MSTN. The experiment is classed as cell-based, mouse. The conditions noted are these: for inhibition of myostatin promoter activity: 0.1 mM and 1 mM in medium without L-leucine; for inhibition of myostatin promoter activity / decrease in myostatin promoter activity compared to L-leucine: C2C12; for decrease in myostatin promoter activity compared to L-leucine: 1 mM in medium without L-leucine. The protocol: After seeding 1×10^5 cells of mouse skeletal muscle cells C2C12 (ATCC, US) in a 12-well culture plate, on the next day, pGL4.15 empty vector and pGL4.15-MSTN vector containing myostatin promoter were transfected using Lipofectamine 2000 for 4 hours. […] After one day, a dual luciferase assay kit (Promega Inc.) was used to measure the promoter activity of myostatin.

Experiment [1] concerns mouse skeletal muscle cells C2C12. The experiment can be described thus: Degree of differentiation of C2C12 cells and number of differentiated intracellular nuclei. The experiment is classed as cell-based. To be noted: 1 mM in differentiation medium, C2C12 grown without L-leucine; for cells in which differentiation occurs, compared to L-leucine: days 1, 6, 9. As to the method: To observe how L-leucine and D-Leu-OMe-HCl act on the differentiation of mouse skeletal muscle cells C2C12, a differentiation medium containing 1 mM L-leucine and D-Leu-OMe-HCl was given to mouse skeletal muscle cells C2C12 continuously grown in a medium without L-leucine, respectively. On days 1, 6, and 9, the degree of differentiation of mouse skeletal muscle cells and the number of nuclei present in the differentiated cells were measured (see FIG. 13).
To observe how L-leucine and D-Leu-BOC—H2O act on the differentiation of mouse skeletal muscle cells C2C12, a differentiation medium containing 1 mM L-leucine and D-Leu-BOC—H2O was given to mouse skeletal muscle cells C2C12 continuously grown in a medium without L-leucine, respectively. On days 1, 6, and 9, the degree of differentiation of mouse skeletal muscle cells and the number of nuclei present in the differentiated cells were measured (see FIG. 15).

Where [2] appears, read: 1 mM in medium without L-leucine, C2C12.
Where [3] appears, read: 0.1 mM in medium without L-leucine, C2C12, after one day.

On to `CC(C)C[C@H](N)C(=O)O` [L-leucine, reference compound], for which the “inhibition of myostatin mRNA expression” value in the experiment with myostatin mRNA (C2C12) was “inhibited”. The “inhibition of myostatin promoter activity” value in the experiment on myostatin promoter is recorded as “inhibited”.

With `CC(C)CC(NC(=O)OC(C)(C)C)C(=O)O` [D-Leu-BOC—H2O], in experiment [1], the “cells containing 6 or more nuclei” value is “observed statistically significantly” and the “cells in which differentiation occurs, compared to L-leucine” value is on record as “relatively large number of cells in which differentiation occurs”. For the same compound, the “inhibition of myostatin mRNA expression” value in the experiment with myostatin mRNA (C2C12) is on record as “inhibited”. Further, the “decrease of myostatin mRNA expression level relative to L-leucine” value in the experiment with myostatin mRNA (setting [2]) was “similarly to L-leucine”. For the same compound, in the experiment with myostatin promoter, the “inhibition of myostatin promoter activity” value is “inhibited” and the “decrease in myostatin promoter activity compared to L-leucine” value is “about 1.89 times”.

As to `COC(=O)C(N)CC(C)C` [D-Leu-OMe-HCl], in experiment [1], the “cells containing 6 or more nuclei” value is “observed statistically significantly” and the “cells in which differentiation occurs, compared to L-leucine” value is listed as “relatively large number of cells in which differentiation occurs”. The “inhibition of myostatin mRNA expression” value in the experiment on myostatin mRNA (C2C12) is on record as “inhibited”. Further, in the experiment with myostatin mRNA (0.1 mM in medium without L-leucine, C2C12), the “decrease in myostatin mRNA expression level compared to L-leucine” value is “about 1.97 times”. The “decrease in myostatin mRNA expression level compared to L-leucine” value in the experiment on myostatin mRNA (setting [2]) is recorded as “about 3.68 times”. Also, in the experiment on myostatin promoter, the “inhibition of myostatin promoter activity” value is “inhibited” and the “decrease in myostatin promoter activity compared to L-leucine” value is “about 1.96 times”.

`CC(C)C[C@H](N)C(=O)OC(C)(C)C.Cl` [L-Leu-OtBu-HCl]: in the experiment on myostatin mRNA (setting [3]), the “expression of myostatin mRNA” value was “decreased”. In addition, in the experiment on myostatin promoter (setting [3]), the myostatin promoter activity entry is recorded as “significantly reduced”.
